{"source": "patent US12213953B2", "about": "“Extended release midodrine hydrochloride compositions and methods of use” (XENAMED CORP., priority 2017, dated 2025)", "origin": "cited, not measured here", "key": {"[1]": {"settings": "high water solubility and high permeability"}, "[2]": {"settings": "oral 10 mg immediate release tablet"}}, "note": "Structures can show the parent of a compound that is named as a salt.", "data": [{"smiles": "COc1ccc(OC)c(C(O)CNC(=O)CN)c1", "note": "(centres unmarked) [midodrine]", "values": [{"measurement": "half-life of midodrine", "setting": "[2]", "value": "approximately 25 minutes"}, {"measurement": "time to peak plasma levels of midodrine", "setting": "[2]", "value": "about 30 minutes"}]}, {"smiles": "COc1ccc(OC)c(C(O)CN)c1", "note": "(centres unmarked) [desglymidodrine]", "values": [{"measurement": "effect of food on bioavailability of desglymidodrine", "setting": "in vivo", "value": "not affected by food"}, {"measurement": "first peak blood concentration of desglymidodrine", "setting": "[2]", "value": "about 10 ng/mL"}]}, {"smiles": "COc1ccc(OC)c(C(O)CNC(=O)CN)c1", "note": "(racemic) [midodrine HCl, (±)-2-amino-N-[2-(2,5-dimethoxyphenyl)-2-hydroxyethyl]acetamide monohydrochloride]", "values": [{"measurement": "BCS classification", "setting": "[1]", "value": "BCS Class I"}]}]}
